# Measurements from patent US11986462B2, “Use of tacrolimus in preparation of medicament for initiating tissue regeneration function” (priority 2020, dated 2024).
# Legend:
# [1] = tested on: distal caudal fin tissue of a zebrafish; assay: Tissue regeneration experiment of distal caudal fin of zebrafish (wound model); format: in vivo; conditions: 3 μM tacrolimus in culture solution, adult zebrafish, 1, 3 and 5 days after amputation, vs DMSO control
# Method: 1. Experimental fish lines and culturing method are as follows: a wild-type (AB) fish was used as an experimental fish, stored in a flowing water tank at 28±0.5° C. with a pH=7±0.5, a conductivity of an aquaculture water was […]; and a photoperiod was 14 h of lighting and 10 h of darkness. Fresh sandworms were fed three times a day. Raising was conducted in accordance with the guidelines of the Ministry of Science and Technology of the People's Republic of China on the cultivation of experimental animals (2006); all fishes were kept under standard laboratory conditions. 2. Wound model construction is as follows: an adult zebrafish was lightly anesthetized in an anesthetic supplemented with tricaine and placed in a 1.5 g/100 mL agarose tank. A tissue with a length of 2-3 joints and a width of two fin rays on caudal fin surface was excavated using a scalpel blade; a hole was exposed on the caudal fin surface to form a damaged tissue containing a proximal wound and a distal wound. Proximal regenerative tissues were daily removed to prevent the hole from being filled. A regeneration status of the caudal fin was imaged and recorded using a Zeiss Discovery […] microscope (Carl Zeiss, Germany). 3. […]
# calcineurin = assay: Determination of calcineurin activity in caudal fin tissues (malachite green, RII peptide substrate); format: in vivo, zebrafish; conditions: 3 μM tacrolimus in culture solution, vs DMSO control group non-regenerative tissues
# Method: 4. […] Free phosphate in the sample was removed, the phosphorylated RII peptide was added, and the sample was incubated at 30° C. for 30 min. Malachite green as a phosphate indicator was added, and the amount of free phosphate in the sample was determined using a SpectraMax® iD3 multi-mode microplate reader (Molecular Devices, USA). The calcineurin activity was normalized to a total protein concentration.
# [2] = in the human body; cited from earlier work
# [3] = cited from earlier work
smiles,measurement,setting,value
"C=CC[C@@H]1/C=C(\C)C[C@H](C)C[C@H](OC)[C@H]2O[C@@](O)(C(=O)C(=O)N3CCCC[C@H]3C(=O)O[C@H](/C(C)=C/[C@@H]3CC[C@@H](O)[C@H](OC)C3)[C@H](C)[C@@H](O)CC1=O)[C@H](C)C[C@@H]2OC [tacrolimus, Tacrolimus]",regeneration of non-regenerative distal caudal fin tissue,[1],the distal tissue regeneration was initiated
same,"calcineurin activity in tissue, normalized to total protein concentration",calcineurin,lower than that of the non-regenerative tissues
same,half-life,[2],10.7 h
same,stability in aqueous solution,[3],extremely-unstable in aqueous solution and can be rapidly degraded
